Active and inactive are the calls of the source.

Series [1] in a line: cytotoxicity toward NIH3T3 fibroblasts, dose response, counter-screen, cell-based, ATP luminescence, mouse fibroblasts (AID 2010).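 Also: cells exposed to compound for about 90 hours before reading.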 Type of series: functional. A general note: A counterscreen serves to expose hits that act by an unwanted route or on another target.
Series [2] in a line: inhibitors of intracellular T. cruzi replication, confirmation, NIH3T3 host cells, beta-gal luminescence (AID 2044).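 Also: intracellular parasites grown in NIH/3T3 mouse fibroblasts as host cells; luminescent beta-galactosidase reporter signal from transgenic T. cruzi replicating inside host cells; inhibitors lower the luminescence signal.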 Type of series: functional, cell-based.
Series [3] concerns the target T1, Heat shock factor protein 1 (Mus musculus, UniProt P38532).
T1 sequence (P38532 whole entry): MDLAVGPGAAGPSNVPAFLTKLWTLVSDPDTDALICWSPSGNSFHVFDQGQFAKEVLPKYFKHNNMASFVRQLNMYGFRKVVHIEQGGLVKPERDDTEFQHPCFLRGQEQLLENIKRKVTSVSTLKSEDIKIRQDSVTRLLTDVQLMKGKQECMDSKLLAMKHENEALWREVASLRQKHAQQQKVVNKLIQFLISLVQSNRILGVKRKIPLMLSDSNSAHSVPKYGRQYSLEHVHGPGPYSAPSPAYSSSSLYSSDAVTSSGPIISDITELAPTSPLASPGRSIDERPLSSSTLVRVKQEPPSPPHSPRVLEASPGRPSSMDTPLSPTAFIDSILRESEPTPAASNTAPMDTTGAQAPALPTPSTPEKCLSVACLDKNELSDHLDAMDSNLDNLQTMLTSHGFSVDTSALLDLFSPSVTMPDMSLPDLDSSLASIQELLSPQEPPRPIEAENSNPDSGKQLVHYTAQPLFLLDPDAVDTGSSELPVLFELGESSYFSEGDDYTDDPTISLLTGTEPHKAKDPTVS
Kind of series: inhibition of MG132-induced HSE-luciferase signal, confirmation, cell-based, NIH3T3, luminescence, dose retest (AID 2382).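 Also: NIH3T3 fibroblasts with HSF1-driven luciferase reporter stressed by proteasome inhibitor MG132; luminescence from HSF1-driven luciferase expression after 8 hours of MG132 stress.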 It is filed as functional.

The next series concerns the target Cytochrome P450 2C19 (Homo sapiens, UniProt P33261). Kind of series: Cytochrome panel assay with activity outcomes. Panel member name: p450-cyp2c19 Compounds with AC50 equal or less than 10 uM are considered active. Type of series: functional.
In a further series the target is Cytochrome P450 3A4 (Homo sapiens, UniProt P08684).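 Also: CYP3A4 tested as one member of a cytochrome P450 panel screen.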
A short description of series [4]: inhibitors of SNCA 5'UTR-driven reporter translation, confirmation, H4 neuroglioma cells, luminescence (AID 1988). It is filed as functional, cell-based.
A short description of series [5]: inhibitors of firefly luciferase expression or activity, dose response, H4 neuroglioma cells, luminescence (AID 1990). Type of series: functional, cell-based.
A short description of series [6]: Luminescence Cell-Based Dose Response HTS to Identify Inhibitors of 5'UTR Stem-Loop Driven Prion Protein mRNA Translation in H4 Neuroglioblastoma Cells. [Related pubchem assays: 1827 (Project Summary), 1813 (Primary HTS)]. It is filed as functional.

Sequence of Cytochrome P450 2C19 (P33261 whole entry): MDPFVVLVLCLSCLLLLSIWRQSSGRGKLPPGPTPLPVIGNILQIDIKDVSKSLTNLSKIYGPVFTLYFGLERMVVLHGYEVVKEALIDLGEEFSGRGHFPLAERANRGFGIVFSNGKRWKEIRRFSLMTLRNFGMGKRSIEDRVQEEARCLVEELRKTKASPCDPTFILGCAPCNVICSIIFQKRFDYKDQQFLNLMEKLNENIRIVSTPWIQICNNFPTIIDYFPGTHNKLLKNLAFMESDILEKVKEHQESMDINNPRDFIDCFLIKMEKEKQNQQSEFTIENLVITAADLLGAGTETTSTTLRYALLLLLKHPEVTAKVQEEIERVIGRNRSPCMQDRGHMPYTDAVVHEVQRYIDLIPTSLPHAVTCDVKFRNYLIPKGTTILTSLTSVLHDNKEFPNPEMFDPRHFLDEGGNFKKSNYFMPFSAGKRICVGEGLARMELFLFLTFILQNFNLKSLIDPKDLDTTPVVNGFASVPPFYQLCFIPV
Sequence of Cytochrome P450 3A4 (P08684 whole entry): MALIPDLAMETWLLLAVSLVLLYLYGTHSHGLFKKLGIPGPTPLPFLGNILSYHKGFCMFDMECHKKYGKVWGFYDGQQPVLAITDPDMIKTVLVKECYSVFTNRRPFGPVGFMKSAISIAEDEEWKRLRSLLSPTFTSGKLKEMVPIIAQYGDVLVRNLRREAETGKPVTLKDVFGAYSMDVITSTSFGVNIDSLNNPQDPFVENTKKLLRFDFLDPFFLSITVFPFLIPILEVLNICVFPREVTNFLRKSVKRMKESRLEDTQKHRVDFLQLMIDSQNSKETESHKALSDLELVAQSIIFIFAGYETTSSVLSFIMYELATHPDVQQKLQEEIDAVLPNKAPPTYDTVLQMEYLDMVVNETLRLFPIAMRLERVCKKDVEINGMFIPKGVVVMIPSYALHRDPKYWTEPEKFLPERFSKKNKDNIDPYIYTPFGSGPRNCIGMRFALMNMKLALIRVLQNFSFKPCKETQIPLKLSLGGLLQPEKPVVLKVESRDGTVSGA

As a reminder, the EC50 is the concentration needed to bring the measured effect to its halfway point. For `O=C(Nc1nc(-c2ccccc2)cs1)C1CCCCN1S(=O)(=O)c1ccc(Cl)cc1` (stereo unspecified), the EC50 in series [1] was > 60 µM (not active); in series [2], 2.22 µM (active). For the molecule `COc1cccc2cc(C(=O)NCc3ccco3)/c(=N/c3ccc(C(=O)O)cc3)oc12`, the EC50 in series [3] is > 195 µM (not active). The term AC50 denotes the midpoint of the concentration-response curve, whichever way the signal moves. In the case of `CC(=O)C1=C(O)C=C(c2ccco2)CC1c1ccco1` (stereo unspecified), the AC50 is 2.24 µM (inconclusive) on Cytochrome P450 2C19 (read-out: AC50) and 20 µM (inconclusive) at Cytochrome P450 3A4.

In the case of `C/C(=N\Nc1nnc(-c2ccccc2)c(-c2ccccc2)n1)c1cccc([N+](=O)[O-])c1`, the AC50 was 17.8 µM (inconclusive) at Cytochrome P450 2C19 (read-out: AC50) and 35.5 µM (inconclusive) on Cytochrome P450 3A4. On to `C=CCOc1ccc(/C=C/C(=O)OCC(=O)NCC2CCCCC2)cc1`, for which the EC50 in series [3] is > 195 µM (not active). As to `COc1ccc(C(=O)N2CCC3(CCCN(CC(C)C)C3)CC2)cc1`, the AC50 on Cytochrome P450 3A4 is 25.1 µM (inconclusive). Take `Cc1cccc(C)c1NC(=O)c1cc2c(=O)c3ccccc3oc2nc1C(F)(F)F`: the AC50 result on Cytochrome P450 2C19 is “inconclusive”; on Cytochrome P450 3A4 it was 0.0501 µM (inconclusive). With `Oc1ccc(OCc2ccccc2)cc1` [MONOBENZONE], the AC50 on Cytochrome P450 2C19 (read-out: AC50) was 6.31 µM (inconclusive).

As to `COc1ccc(CN(CC2CCC(C(=O)O)CC2)C(=S)Nc2ccc(C)c(Cl)c2)cc1` (stereo unspecified), the EC50 in series [1] and in series [2] was > 60 µM (not active) each time. As for `CCOc1cc(OCC)cc(C(=O)O)c1`, the EC50 in series [3] was > 195 µM (not active).

Regarding `S=C(Nc1ccc(Br)cc1Cl)NC1CCN(Cc2ccccc2)CC1`, the EC50 in series [1] was > 30 µM (not active); in series [2] it was 0.228 µM (active). On to `COc1cccc(-n2c(SCC(=O)Nc3sc4c(c3C(N)=O)CCC4)nc3ccccc3c2=O)c1`, for which the concentration for a half-maximal effect (EC50) in series [1] is > 60 µM (not active); in series [2] it was 2.9 µM (active). Consider `O=C(Cc1ccccc1)NCCSCc1ccc(Cl)cc1`, for which the AC50 on Cytochrome P450 3A4 was 14.1 µM (inconclusive).

On to `CO[C@@H]1COC(=O)CCC[C@@H](C)[C@H](OC)COC(=O)[C@H](Cc2ccccc2)NC(=O)C/C=C\[C@H]1C`, for which the AC50 on Cytochrome P450 2C19 (read-out: AC50) is 0.00251 µM (inconclusive). `CC(CCCC(C)(C)O)NC(=O)c1ccc2oc(CCc3ccccc3)nc2c1` (stereo unspecified): the EC50 in series [3] is on record as > 195 µM (not active). As to `Cc1ccc(-c2nnc(N3CCN(C(=O)c4cccs4)CC3)c3ccccc23)cc1`, the EC50 in series [4] was 22 µM (active); in series [5], > 120 µM (not active); in series [6] it was > 120 µM (not active).

`N#CCn1c2ccccc2c2nc3ccccc3nc21`: the EC50 was > 120 µM (not active) in series [4], 23.3 µM (active) in series [5] and > 120 µM (not active) in series [6].

`CSCC[C@H](NC(=O)CC(C)(C)C)c1nc2ccccc2[nH]1`: on Cytochrome P450 3A4, the AC50 is 15.8 µM (inconclusive). For the molecule `CC(C)(C)OC(=O)N1CCN(C(=O)c2[nH]cnc2C(=O)NCC(=O)OCc2ccccc2)CC1`, the EC50 in series [3] is > 195 µM (not active).

As to `Nc1cc(Cl)ccc1Oc1ccccc1`, the AC50 at Cytochrome P450 3A4 is 22.4 µM (inconclusive).

Consider `COc1ccc(C(=O)NCc2nnc(SCC(=O)N3CCC(C)CC3)o2)cc1OC`, for which the EC50 in series [3] is > 195 µM (not active).

Consider `Cc1ccc(N(C)C(=O)CN(C)S(=O)(=O)c2ccc3c(c2)n(C)c(=O)c(=O)n3C)cc1`, for which the EC50 in series [3] is recorded as > 195 µM (not active). In the case of `COc1cc(OC)c(OC)cc1/C=N/NC(=S)NCC1CCCO1` (stereo unspecified), in series [3], the EC50 is recorded as > 195 µM (not active). On to `Cc1ccc([N+](=O)[O-])c(OCCCN2CCC(Cc3ccccc3)CC2)c1`, for which the EC50 in series [3] was > 195 µM (not active). Take `C/C(=N\CCc1c(C)[nH]c2ccc(OCc3ccccc3)cc12)C1=C(O)CC(c2ccccc2)CC1=O` (stereo unspecified): the EC50 in series [1] was > 60 µM (not active); in series [2], 2.1 µM (active). As to `CC1CCCC(C)N1CC(O)COCC1COc2ccccc2O1.Cl` (stereo unspecified), on Cytochrome P450 2C19, the AC50 result was “inconclusive”. For the molecule `CCc1cc2c(nc1CC)CCN(CC/C(C)=N/OC[C@@H](C)[C@H](OCc1ccccc1)C(C)C)C2`, the AC50 at Cytochrome P450 3A4 is 3.98 µM (inconclusive).

For `CCOc1c(C)cc(S(=O)(=O)NCc2cccnc2)c(C)c1C`, in series [3], the EC50 is > 195 µM (not active). For the molecule `COc1ccc(/C=C2\CCCC3C2=NN(C(=O)COC(=O)CNC(=O)c2ccccc2)C3c2ccc(OC)cc2)cc1` (stereo unspecified), the 50% effective concentration (EC50) in series [3] was > 195 µM (not active).

Take `O=C1[C@H]2[C@H]3[C@H](O)[C@H](O)C/C(=N/OC[C@@H](O)COCc4ccco4)[C@@H]3CC[C@@H]2C(=O)N1c1cccc(Oc2ccccc2)c1`: at Cytochrome P450 3A4, the AC50 was 7.94 µM (inconclusive). On to `Cc1ccc(N2C(=O)c3ccccc3NC2C(C)Cc2ccc3c(c2)OCO3)cc1` (stereo unspecified), for which the EC50 in series [1] is > 30 µM (not active); in series [2] it was 2.61 µM (active). For `COc1ccc(C)cc1S(=O)(=O)Nc1cc2c3c(c1)CCC(=O)N3CCC2`, the EC50 in series [3] is given as > 195 µM (not active). `O=C(Nc1c2c(nn1-c1ccc(F)cc1)CS(=O)(=O)C2)C12CC3CC(CC(C3)C1)C2`: the concentration at half-maximal activity (AC50) result on Cytochrome P450 2C19 is given as “inconclusive”. For the molecule `COC(=O)C1=C(C)N(CCc2c[nH]c3ccc(OC)cc23)C(=O)C1`, the EC50 in series [4], in series [5] and in series [6] was > 120 µM (not active) each time. Regarding `Nc1nc(NC(=O)C(Cl)(Cl)Cl)nn1-c1ccccc1`, the EC50 in series [3] was > 195 µM (not active). In the case of `Oc1nc(CN2CCN(C/C=C/c3ccccc3)CC2)nc2cc(Cl)ccc12`, the concentration giving a half-maximal response (EC50) in series [1] is > 60 µM (not active); in series [2] it was 0.405 µM (active). Consider `Cn1cccc1C(=O)N1CCC2(CCCN(C(=O)Nc3ccccc3)C2)CC1`, for which the AC50 at Cytochrome P450 3A4 was 31.6 µM (inconclusive). With `Cc1ccc(-c2nnn(CC(=O)N(Cc3cccs3)C(C(=O)NC3CCCC3)c3ccncc3)n2)cc1` (stereo unspecified), the EC50 in series [3] is given as > 195 µM (not active).

Take `O=[N+]([O-])c1ccccc1/C=N/n1c(S)nnc1COc1ccccc1`: the AC50 at Cytochrome P450 2C19 (read-out: AC50) was 11.2 µM (inconclusive). For `CCn1c(SCC(=O)Nc2nc(C)c(C)s2)nnc1-c1cccnc1`, the EC50 in series [4], in series [5] and in series [6] was > 120 µM (not active) in each case.

For the molecule `O=C(c1ccc(SCc2cccc(Br)c2)c([N+](=O)[O-])c1)N1CCN(c2ccccn2)CC1`, the EC50 is > 60 µM (not active) in series [1] and 2.08 µM (active) in series [2]. As to `Cc1ccc(S(=O)(=O)c2c(C)cc(C)nc2Cl)c(C)c1`, the concentration for a half-maximal effect (EC50) in series [1] is > 60 µM (not active); in series [2] it was 2 µM (active). Regarding `CN1CC[C@@]2(CCCN(C(=O)c3cccn3C)C2)C1`, the AC50 at Cytochrome P450 3A4 was 7.94 µM (inconclusive).

Regarding `CCOC(=O)CCCNC(=O)CCCNC(=O)C(c1ccccc1)c1ccccc1`, the AC50 on Cytochrome P450 2C19 (read-out: AC50) was 14.1 µM (inconclusive); at Cytochrome P450 3A4, 8.91 µM (inconclusive). For the molecule `O=C(/C=C/c1ccccc1)NC(=S)N1CCSCC1`, in series [3], the EC50 was > 195 µM (not active). Regarding `CC(=O)c1[nH]c(C)c(C(C)=O)c1C`, the AC50 on Cytochrome P450 3A4 was 20 µM (inconclusive). Take `CC(C)c1cccc2cc3c(nc12)-c1cccc(=O)n1C3`: the AC50 on Cytochrome P450 2C19 (read-out: AC50) was 39.8 µM (inconclusive). Take `CCOC(=O)Cc1cnc(NC(=O)c2ccccc2)s1`: in series [3], the half-maximal effective concentration (EC50) is recorded as > 195 µM (not active). `Cc1cc(CN2CCN(CCC#N)CC2)c(O)c(C2(C)CCCCC2)c1`: the values for the concentration for a half-maximal effect (EC50) in series [1] and in series [2] were > 60 µM (not active) and 1.1 µM (active), respectively.

Values taken from ChEMBL document CHEMBL1201862, “PubChem BioAssay data set” (2004).
